Laboratory results published in patent US20070128217A1 (priority 2003, published 2007).

Tests used:
[1] = tested on: antibodies in sera from SARS patients (sera 1a, 1b, 2, 6, 37, 62, London, SARS-yellow, SARS-green); format: binding, human; design: Binding of serum 6 to linear peptides of protein X1 of SARS-CoV Urbani / Binding of serum 37 to linear peptides of protein X1 of SARS-CoV Urbani / Binding of serum 6 to looped/cyclic peptide (PEPSCAN-ELISA) / Binding of serum 37 to looped/cyclic peptide (PEPSCAN-ELISA) / Binding of serum 37 to looped/cyclic peptides of protein X1 of SARS-CoV Urbani / Binding of serum 6 to linear peptides of protein X2 / Binding of serum 37 to linear peptides of protein X2 / Binding of serum 37 to looped/cyclic peptides of protein X2 of SARS-CoV Urbani / Binding of serum 6 to linear peptides of protein M of SARS-CoV Urbani / Binding of serum 37 to linear peptides of protein M of SARS-CoV Urbani / Binding of serum 6 to looped/cyclic peptides of protein M of SARS-CoV Urbani / Binding of serum 37 to looped/cyclic peptides of protein M of SARS-CoV Urbani / Binding of serum 6 to linear peptides of protein X3 of SARS-CoV Urbani / Binding of serum 37 to linear peptides of protein X3 of SARS-CoV Urbani / Binding of serum 37 to looped/cyclic peptides of protein X3 of SARS-CoV Urbani / Binding of serum 6 to linear peptides of protein X4 of SARS-CoV Urbani / Binding of serum 37 to linear peptides of protein X4 of SARS-CoV Urbani / Binding of serum 37 to looped/cyclic peptides of protein X4 of SARS-CoV Urbani / Binding of serum 6 to linear peptides of protein X5 of SARS-CoV Urbani / Binding of serum 37 to linear peptides of protein X5 of SARS-CoV Urbani / Binding of serum 37 to looped/cyclic peptides of protein X5 of SARS-CoV Urbani / Binding of serum 6 to linear peptides of protein N of SARS-CoV Urbani / Binding of serum 37 to linear peptides of protein N of SARS-CoV Urbani / Binding of serum 6 to linear peptide (PEPSCAN-ELISA) / Binding of serum 1a to looped/cyclic peptides of protein N of SARS-CoV Urbani / Binding of serum 1b to looped/cyclic peptides of protein N of SARS-CoV Urbani / Binding of serum 2 to looped/cyclic peptides of protein N of SARS-CoV Urbani / Binding of serum 6 to looped/cyclic peptides of protein N of SARS-CoV Urbani / Binding of serum 37 to looped/cyclic peptides of protein N of SARS-CoV Urbani / Binding of serum 62 to looped/cyclic peptides of protein N of SARS-CoV Urbani / Binding of serum London to looped/cyclic peptides of protein N of SARS-CoV Urbani / Binding of serum SARS-green to looped/cyclic peptides of protein N of SARS-CoV Urbani: unit not given here
[2] = tested on: control sera (pooled serum of ten healthy LUMC hospital workers; commercial negative donor pooled serum from the Dutch bloodbank); format: binding, human; design: Binding of Control serum LUMC to linear peptides / Binding of Control serum Blood-bank to linear peptides / Binding of Control serum LUMC to looped peptides / Binding of Control Serum Blood-Bank to Looped peptides / Binding of Control serum LUMC to linear peptides of the protein M of SARS-CoV Urbani / Binding of Control serum Blood-bank to linear peptides of the protein M of SARS-CoV Urbani / Binding of Control serum LUMC to looped peptides of the protein M of SARS-CoV Urbani / Binding of Control Serum Blood-Bank to Looped peptides of the protein M of SARS-CoV Urbani: unit not given here
[3] = tested on: rabbit serum obtained by immunizing a rabbit with the SARS-CoV strain Frankfurt 1; format: binding; design: Binding of a rabbit serum to linear peptides / Binding of a rabbit serum to looped peptides / Rabbit serum linear peptides / Rabbit serum looped peptides / Binding of a rabbit serum to linear peptides of protein N of SARS-CoV Urbani (Rabbit serum linear peptides) / Binding of a rabbit serum to looped/cyclic peptides of protein N of SARS-CoV Urbani (Rabbit serum looped peptides): unit not given here

Sequence	Binding of serum 1a to linear peptides of protein X2 [1]	Binding of serum 1a to looped/cyclic peptides of protein X2 of SARS-CoV Urbani [1]	Binding of serum 1b to linear peptides of protein X2 [1]	Binding of serum 1b to looped/cyclic peptides of protein X2 of SARS-CoV Urbani [1]	Binding of serum 2 to linear peptides of protein X2 [1]	Binding of serum 2 to looped/cyclic peptides of protein X2 of SARS-CoV Urbani [1]	Binding of serum 6 to linear peptides of protein X2 [1]	Binding of serum 6 to looped/cyclic peptides of protein X2 of SARS-CoV Urbani [1]	Binding of serum 37 to linear peptides of protein X2 [1]	Binding of serum 37 to looped/cyclic peptides of protein X2 of SARS-CoV Urbani [1]	Binding of serum 62 to linear peptides of protein X2 [1]	Binding of serum 62 to looped/cyclic peptides of protein X2 of SARS-CoV Urbani [1]	Binding of serum London to linear peptides of protein X2 [1]	Binding of serum London to looped/cyclic peptides of protein X2 of SARS-CoV Urbani [1]	Binding of serum SARS-green to linear peptides of protein X2 [1]	Binding of serum SARS-green to looped/cyclic peptides of protein X2 of SARS-CoV Urbani [1]	Binding of Control Serum Blood-Bank to Looped peptides [2]	Binding of Control serum Blood-bank to linear peptides [2]	Binding of Control serum LUMC to linear peptides [2]	Binding of Control serum LUMC to looped peptides [2]	other results
TAFQHQNSKKTTKLV	0.7	0.3	0.5	0.3	0.5	0.2	0.7	0.3	0.7	0.2	0.4	0.4	0.4	0.2	0.1	0.1	0.4	0.6	0.9	0.4	Binding of serum SARS-yellow to linear peptides of protein X2 [1]: 0.8; Binding of serum SARS-yellow to looped/cyclic peptides of protein X2 of SARS-CoV Urbani [1]: 0.3; Recognition of the peptide by the rabbit serum [3]: recognized
TALQELLIQQWIQFM	0.8	0.7	0.6	0.5	0.3	0.4	0.2	0.3	0.5	0.5	0.5	0.7	0.4	0.2	0.5	0.5	0.7	0.7	0.4	0.7	Binding of serum SARS-yellow to linear peptides of protein X2 [1]: 0.4; Binding of serum SARS-yellow to looped/cyclic peptides of protein X2 of SARS-CoV Urbani [1]: 0.5; Binding of a rabbit serum to linear peptides [3]: 0.4; Binding of a rabbit serum to looped peptides [3]: 0.4
TAWLCALGKVLPFHR																	0.4	0.7	0.4	0.6	Binding of serum 1a to linear peptides of protein X5 of SARS-CoV Urbani [1]: 0.7; Binding of serum 1a to looped/cyclic peptides of protein X5 of SARS-CoV Urbani [1]: 0.4; Binding of serum 1b to linear peptides of protein X5 of SARS-CoV Urbani [1]: 0.5; Binding of serum 1b to looped/cyclic peptides of protein X5 of SARS-CoV Urbani [1]: 0.3; Binding of serum 2 to linear peptides of protein X5 of SARS-CoV Urbani [1]: 0.6; Binding of serum 2 to looped/cyclic peptides of protein X5 of SARS-CoV Urbani [1]: 0.6; Binding of serum 6 to linear peptides of protein X5 of SARS-CoV Urbani [1]: 0.5; Binding of serum 6 to looped/cyclic peptides of protein X5 of SARS-CoV Urbani [1]: 0.9; Binding of serum 37 to linear peptides of protein X5 of SARS-CoV Urbani [1]: 0.7; Binding of serum 37 to looped/cyclic peptides of protein X5 of SARS-CoV Urbani [1]: 0.4; Binding of serum 62 to linear peptides of protein X5 of SARS-CoV Urbani [1]: 0.7; Binding of serum 62 to looped/cyclic peptides of protein X5 of SARS-CoV Urbani [1]: 0.7; Binding of serum London to linear peptides of protein X5 of SARS-CoV Urbani [1]: 0.6; Binding of serum London to looped/cyclic peptides of protein X5 of SARS-CoV Urbani [1]: 1.3; Binding of serum SARS-green to linear peptides of protein X5 of SARS-CoV Urbani [1]: 0.7; Binding of serum SARS-green to looped/cyclic peptides of protein X5 of SARS-CoV Urbani [1]: 0.2; Binding of serum SARS-yellow to linear peptides of protein X5 of SARS-CoV Urbani [1]: 0.3; Binding of serum SARS-yellow to looped/cyclic peptides of protein X5 of SARS-CoV Urbani [1]: 0.8; Rabbit serum linear peptides [3]: 0.7; Rabbit serum looped peptides [3]: 0.8
